In paper PMC11510191, “Exploring Benzo[h]chromene Derivatives as Agents against Protozoal and Mycobacterial Infections” (Pharmaceuticals, 2024):
pIC50: −log10 of the molar value. ≈ marks a conversion by molar mass, not a printed value. Where two headings read alike, the source gives them in different places.

Key:
[1] = system: M. tuberculosis ATCC H37Rv; assay: MIC broth microdilution; format: cell-based; conditions: Mycobacterium tuberculosis, H37RV
[2] = system: M. intracellulare LIID-02; assay: MIC broth microdilution; format: cell-based; conditions: Mycobacterium intracellulare, LIID02
M. abscessus LIID-03 = assay: MIC broth microdilution; format: cell-based; conditions: Mycobacteroides abscessus, LIID03, 72 h
S. typhi (G−) = assay: MIC broth microdilution; format: cell-based; conditions: Salmonella enterica, 24 h
[3] = system: Leishmania brazilensis (L. b) promastigotes; assay: Leishmanicidal activity on L. braziliensis promastigotes (resazurin); conditions: for pIC50: Leishmania, 48 h, read-out: Leishmanicidal Activity IC50—L. b; for Selectivity Index L929/ L. b: SI = CC50 L929/IC50 parasites
Protocol: (§1) The culture of L. braziliensis (MHOM/CO/88/UA301) and L. infantum (MCAN/ES/92/BCN83) was obtained from the Facultad de Farmacia, Universidad Complutense de Madrid, Spain.
(§2) The maintenance of the strains, the form of cultivation, and the isolation of shape promastigota followed the procedures described by Roldós et al. [8]. The promastigotes were grown at 22 °C in Schneider’s Drosophila medium supplemented with 20% FBS. The assay was performed using a modification of a previous method [47]. Promastigotes (2 × 10^6 parasites/well) were cultured in 96-well plastic plates. Compounds were dissolved in dimethylsulfoxide (DMSO). Different dilutions of the compounds up to a 200 µL final volume were added. After 48 h at 26 °C, 20 µL of 2 mM resazurin solution was added and the oxidation–reduction was quantified at 570 and 600 nm. The solution of resazurin was prepared at 2.5 mM in phosphate-buffered solution (PBS), pH 7.4, and filtered through 0.22 µM prior to use. All tests were carried out in triplicate. Resazurin sodium salt was obtained from Sigma–Aldrich (St. Louis, MO, USA) and stored at 4 °C protected from light. The efficacy of each compound was estimated by calculating the IC50 values.

[4] = system: M. tuberculosis CIPTIR-F296; assay: MIC broth microdilution; format: cell-based; conditions: Mycobacterium tuberculosis, CIPTIRF296
M. abscessus LIID-02 = assay: MIC broth microdilution; format: cell-based; conditions: Mycobacteroides abscessus, LIID02, 72 h
S. aureus (G+) = assay: MIC broth microdilution; format: cell-based; conditions: Staphylococcus aureus, 24 h
L. innocua (G+) = assay: MIC broth microdilution; format: cell-based; conditions: Listeria innocua, 24 h
L. monocytogenes (G+) = assay: MIC broth microdilution; format: cell-based; conditions: Listeria monocytogenes, 24 h
P. aeruginosa (G−) = assay: MIC broth microdilution; format: cell-based; conditions: Pseudomonas aeruginosa, 24 h
M. fortuitum LIID-01 = assay: MIC broth microdilution; format: cell-based; conditions: Mycolicibacterium fortuitum, LIID01, 72 h
M. luteus (G+) = assay: MIC broth microdilution; format: cell-based; conditions: Micrococcus luteus, 24 h
M. abscessus LIID-01 = assay: MIC broth microdilution; format: cell-based; conditions: Mycobacteroides abscessus, LIID01, 72 h
E. coli (G−) = assay: MIC broth microdilution; format: cell-based; conditions: Escherichia coli, 24 h
T. cruzi epimastigotes = assay: Trypanocidal activity on T. cruzi epimastigotes (CL-B5 lacZ, CPRG); format: cell-based, Trypanosoma cruzi clone CL-B5; conditions: for Selectivity Index L929/ T. cruzi: SI = CC50 L929/IC50 parasites; for pIC50: 72 h
Protocol: For in vitro studies of T. cruzi. the clone CL-B5 was used. Parasites were stably transfected with the Escherichia coli β-galactosidase gene (lacZ), provided by Facultad de Farmacia (Universidad Complutense de Madrid). Epimastigotes were grown at 28 °C in liver infusion tryptose broth (Difco, Detroit, MI, USA) with 10% fetal bovine serum (FBS) (Gibco, Carlsbad, CA, USA), penicillin (Ern S.A., Barcelona, Spain), and streptomycin (Reig Jofré S.A., Barcelona. Spain), as described previously, and harvested during the exponential growth phase. Briefly, the screening assay was performed in 96-well microplates (Sarstedt, Inc., Newton, NC, USA) with cultures that had not reached the stationary phase. Briefly, epimastigotes were seeded at 2 × 10^5 parasites/mL in 200 µL growth media. The plates were then incubated with the respective compounds at 28 °C for 72 h. Afterwards, 50 µL of CPRG solution was added, resulting in a final concentration of 200 µM. The plates were incubated at 37 °C for an additional 4 h and then read at 595 nm. Each concentration was tested in triplicate. […] These values were calculated from the sigmoidal dose–response curve adjustment using the statistical software program Graph-Pad Prims 3.0. Benznidazole was used as a reference drug.

[5] = system: Leishmania infantum (L. i) promastigotes; assay: Leishmanicidal activity on L. infantum promastigotes (resazurin); conditions: for pIC50: Leishmania infantum, 48 h, read-out: Leishmanicidal Activity IC50—L. i; for Selectivity Index L929/ L. i: SI = CC50 L929/IC50 parasites
Protocol: as §1, §2

[6] = system: M. tuberculosis CIPTIR -D152; assay: MIC broth microdilution; format: cell-based; conditions: Mycobacterium tuberculosis
[7] = Cytotoxicity on L929 fibroblasts (resazurin); conditions: mouse
[8] = system: NCTC929 fibroblast cells (L929); assay: Cytotoxicity on L929 fibroblasts (resazurin); conditions: L929 fibroblasts
[9] = system: M. intracellulare LIID-01; assay: MIC broth microdilution; format: cell-based; conditions: Mycobacterium intracellulare, LIID01
E. faecalis (G+) = assay: MIC broth microdilution; format: cell-based; conditions: Enterococcus faecalis, 24 h
B. cereus (G+) = assay: MIC broth microdilution; format: cell-based; conditions: Bacillus cereus, 24 h
in vitro = conditions: mouse
[10] = Trypanosoma cruzi, epimastigotes, read-out: Trypanocidal Activity IC50 T. cruzi

SMILES	MIC [1]	MIC [2]	MIC (M. abscessus LIID-03)	MIC (S. typhi (G−))	pIC50 [3]	Selectivity Index L929/ L. b [3]	MIC [4]	MIC (M. abscessus LIID-02)	MIC (S. aureus (G+))	MIC (L. innocua (G+))	MIC (L. monocytogenes (G+))	MIC (P. aeruginosa (G−))	MIC (M. fortuitum LIID-01)	MIC (M. luteus (G+))	MIC (M. abscessus LIID-01)	MIC (E. coli (G−))	pIC50 [5]	Selectivity Index L929/ L. i [5]	MIC [6]	CC50 at 24 h [7]	other results
Cc1ccc(S(=O)(=O)n2cc(CCC(=O)Oc3c4c(c5ccccc5c3OC(=O)CCc3cn(S(=O)(=O)c5ccc(C)cc5)nn3)OC(C)(C)C=C4)nn2)cc1 [Compound 2f]	> 200 µg/mL	> 200 µg/mL	> 200 µg/mL	> 200 µg/mL	4.84	2	> 200 µg/mL	> 200 µg/mL	> 200 µg/mL	> 200 µg/mL	> 200 µg/mL	> 200 µg/mL	> 200 µg/mL	> 200 µg/mL	> 200 µg/mL	> 200 µg/mL	4.42	1	> 200 µg/mL	31.8 µM	Selectivity Index L929/ T. cruzi (T. cruzi epimastigotes): 2; pIC50 (T. cruzi epimastigotes; Trypanosoma cruzi, read-out: Trypanocidal Activity IC50 T. cruzi, epimastigotes, 72 h): 4.67; pIC50 (T. cruzi epimastigotes; epimastigotes, read-out: Trypanocidal Activity IC50 T. cruzi): 4.68; Cytotoxicity (in words) [8]: most cytotoxic; MIC [9]: 50 µg/mL (≈ 62.7 µM); MIC (E. faecalis (G+)): > 200 µg/mL; MIC (B. cereus (G+)): > 200 µg/mL
Cc1ccc(S(=O)(=O)n2cc(CCCC(=O)Oc3c4c(c5ccccc5c3OC(=O)CCCc3cn(S(=O)(=O)c5ccc(C)cc5)nn3)OC(C)(C)C=C4)nn2)cc1 [Compound 3f]	> 200 µg/mL	> 200 µg/mL	100 µg/mL (≈ 121 µM)	> 200 µg/mL	4.75	18	> 200 µg/mL	100 µg/mL (≈ 121 µM)	100 µg/mL (≈ 121 µM)	100 µg/mL (≈ 121 µM)	100 µg/mL (≈ 121 µM)	100 µg/mL (≈ 121 µM)	100 µg/mL (≈ 121 µM)	100 µg/mL (≈ 121 µM)	100 µg/mL (≈ 121 µM)	100 µg/mL (≈ 121 µM)	4.33	7	> 200 µg/mL	312 µM	Selectivity Index L929/ T. cruzi (T. cruzi epimastigotes): 13; pIC50 (T. cruzi epimastigotes; [10]): 4.61; Cytotoxicity (in words) [8]: no cytotoxicity; MIC [9]: 100 µg/mL (≈ 121 µM); MIC (E. faecalis (G+)): > 200 µg/mL; MIC (B. cereus (G+)): 100 µg/mL (≈ 121 µM)
CC1(C)C=Cc2c(OC(=O)CCCc3cn(Cc4ccc([N+](=O)[O-])cc4)nn3)c(OC(=O)CCCc3cn(Cc4ccc([N+](=O)[O-])cc4)nn3)c3ccccc3c2O1 [Compound 3h]	> 200 µg/mL	> 200 µg/mL	100 µg/mL (≈ 127 µM)	100 µg/mL (≈ 127 µM)	< 3.59	–	> 200 µg/mL	100 µg/mL (≈ 127 µM)	100 µg/mL (≈ 127 µM)	> 200 µg/mL	> 200 µg/mL	> 200 µg/mL	> 200 µg/mL	> 200 µg/mL	100 µg/mL (≈ 127 µM)	> 200 µg/mL	< 3.59	–	> 200 µg/mL	> 256 µM	pIC50 (T. cruzi epimastigotes; [10]): < 3.59; MIC [9]: > 200 µg/mL; MIC (E. faecalis (G+)): > 200 µg/mL; MIC (B. cereus (G+)): > 200 µg/mL
CCCCCCCCCCCCCCCCOP(=O)([O-])OCC[N+](C)(C)C [Miltefosine, reference compound]	–	–	–	–	4.19	43.0	–	–	–	–	–	–	–	–	–	–	4.60	109.7	–	–	CC50 at 24 h (in vitro): 2.75 mM
